Data taken from patent US9611246B2, “Compositions, apparatus, systems, and methods for resolving electronic excited states” (HALLSTAR INNOVATIONS CORP., priority 2012, dated 2017).

Columns and labels:
[1] = Voltammetry, redox potential with respect to Ag/AgCl reference electrode; format: physicochemical; settings: vs Ag/AgCl
Description: For these experiments, dimethylsulfoxide (DMSO) and tetrabutylammonium perchlorate (TBAP) were obtained from Sigma Aldrich and used as received. […] Platinum wires (BASi MW-1032) of diameter 0.5 mm were employed for both the working electrode (WE) and counter electrode (CE). A dry-solvent tolerant Ag/AgCl reference electrode (RE) was obtained from eDAQ (Model ET072). The WE and CE were cleaned prior to each by first rinsing in acetone, then DI, followed by soaking in ˜50% aqueous H2SO4 for 10-20 minutes and then a final DI rinse. The RE electrode was cleaned prior to each use by an acetone rinse followed by DI rinse. Each sample solution was prepared in a fresh glass vial which had been rinsed with DI then acetone and allowed to dry Immediately after preparing each solution, it was purged with pure N2 gas for 15-20 minutes with the electrodes in place. Voltammetry data was collected shortly afterwards with an EG&G PAR 263 A Potentiostant/Galvanostat operated using a Labview-based control program. Scans were performed at various potential ranges between +2.0V and −2.0V (vs Ag/AgCl); all scan rates were constant at 200 mV/s.

[2] = Protoporphyrin IX fluorescence lifetime quenching (singlet excited state); format: physicochemical; settings: PPIX; for bimolecular quenching rate constant for singlet excited state quenching (in words): acetonitrile; for Singlet Quenching Rate Constant: acetonitrile solutions at room temperature
Description: Fluorescence lifetime measurements are a convenient way to measure singlet state quenching by stabilizers. Protoporphyrin IX decay traces were recorded in the absence and presence of compound I(a)(1) and alkoxy […] (FIG. 3). […] The collected data shown in FIG. 3 were used to determine the bimolecular quenching rate constant for singlet excited state quenching by the compounds. The quenching rate constant may be directly extracted from the slope of the plot of the inverse fluorescence lifetime vs. the concentration of the two compounds (FIG. 4). […] The biomolecular quenching rate constants for singlet excited state (kq^S) and triplet excited state (kq^T) quenching of PPIX by stabilizers in acetonitrile solutions at room temperature is shown in Table 4, as well and the Stern-Volmer rate constants.

[3] = Protoporphyrin IX triplet state quenching by laser flash photolysis; format: physicochemical; settings: PPIX, acetonitrile solutions at room temperature
Description: To investigate if triplet states of protoporphyrin IX are quenched by the two compounds, laser flash photolysis experiments were performed. In these experiments, a deoxygenated acetonitrile solution of protoporphyrin IX is excited with short laser pulses from a Nd-YAG laser (355 nm, 5 ns pulse width). Difference absorption kinetic traces were recorded at different observation wavelengths (300 to 800 nm) and from these a transient absorption spectrum was constructed (FIG. 5A). […] In addition, two bands are observed at 320 and 440 nm, which are assigned to the triplet-triplet absorption of protoporphyrin IX. […] Triplet absorption kinetics at 440 nm may be utilized to obtain triplet quenching rate constants by the stabilizers. Triplet decay traces at 440 nm were recorded in the presence of different amounts of the alkoxy […], Formulas […])(1), and the mixture of II(b)(1) and II(c)(1). The decay traces were fitted to a first-order kinetics. The plot of these pseudo-first-order rate constants (inverse decay lifetime) vs. the concentration of the two compounds gives directly the bimolecular triplet quenching rate constant from the slope (FIG. 6). The biomolecular quenching rate constants for singlet excited state (kq^S) and triplet excited state (kq^T) quenching of PPIX by stabilizers in acetonitrile solutions at room temperature is shown in Table 4, as well and the Stern-Volmer rate constants.

[4] = Stern-Volmer analysis of singlet oxygen suppression; format: physicochemical
Description: The singlet oxygen phosphorescence intensity in the absence of the compound of Formulas I(a)(1), II(a)(1), II(d)(1), II(e)(1), or a mixture of II(b)(1) and II(c)(1) (I0) divided by the singlet oxygen phosphorescence intensity in the presence of compounds of Formula I/II(I) was plotted against the Formula I/II concentration (FIG. 16). From the slope of these plots (Stern-Volmer constant) and the lifetime of the quenched excited state, the bimolecular quenching constant can be extracted. If the excited state, which is quenched by the compound of Formula I(a)(1) (which causes a reduction in singlet oxygen production) is the singlet excited state of protoporphyrin IX then, using the previously measured fluorescence lifetime in acetonitrile (if =12.7 ns) a quenching rate constant of 2.4×10^9 M^−1 s^−1 is estimated. […] The rate constant derived from singlet oxygen phosphorescence quenching (FIG. 16) is only half of the more directly derived rate constant from fluorescence quenching, which could be caused by the difference in solvents or by some contribution of protoporphyrin triplet quenching by the compound of Formula I(a)(1). […] This rate constant is 5 times higher than the directly measured rate constant by laser flash photolysis (6.1×10^6 M^−1 s^−1). […] It must be noted that protoporphyrin IX triplet lifetime of ˜1 μs in air saturated DMSO was only estimated based on the directly measured triplet lifetime in air saturated acetonitrile and considering the different oxygen concentration in DMSO compared to acetonitrile. If necessary, the protoporphyrin IX triplet lifetime in air saturated DMSO can easily be measured by laser flash photolysis. The complex reaction mechanism is summarized in Scheme 1 (FIG. 17).
The biomolecular quenching rate constants for singlet excited state (kq^S) and triplet excited state (kq^T) quenching of PPIX by stabilizers in acetonitrile solutions at room temperature is shown in Table 4, as well and the Stern-Volmer rate constants.
Stern-Volmer constants are in direct correlation with the singlet oxygen suppression efficiency. Table 4 (above) summarizes the Stern-Volmer constants and PPIX singlet and triplet state quenching rate constants. Three different ranges of Stern-Volmer constants were observed. […] For compounds I(a)(1), II(d)(1), and the mixture of II(b)(1) and II(c)(1), Stern-Volmer constants of about 30 M^−1 were observed. For these three stabilizers, high PPIX singlet quenching rate constants (about 5×10^9 M^−1 s^−1) but low triplet quenching rate constants (<10^9 M^−1 s^−1) were observed. Here, the singlet oxygen suppression is probably dominated by PPIX singlet excited state quenching by these stabilizers. […] Because of the very high PPIX triplet quenching rate constant by compound II(a)(1) (3.2×10^9 M^−1 s^−1), the singlet oxygen suppression is probably dominated by triplet quenching. […] These kinetic parameters may include the MePPIX triplet and singlet lifetimes in air saturated and oxygen free CDCl3 and the bimolecular quenching constant by oxygen.

[5] = Photostabilization of Avobenzone and OMC, solution on quartz (Experiment 6-2); format: physicochemical; settings: Avobenzone 3%, OMC 7.5%
Description: Experiment 6-2 compares the compounds at 3% to photostabilize Avobenzone at 3% and OMC at 7.5%. The results are shown in Table 2 and graphically in FIG. 20.

[6] = UV and visible light absorption spectra of stabilizers; format: physicochemical; settings: acetonitrile
Description: UV and visible light absorption spectra were recorded to investigate to what extent each stabilizer itself absorbs UV light. […] Protoporphyrin IX has weak absorption bands above 450 nm, where the two compounds are transparent (FIG. 2). The compound with the oxygen bridge (Formula II(d)(1)) caused a bathocromic shift of the UV absorption of the lowest energy band. The compound with the sulfur bridge (Formula II(e)(1)) shifted the lowest energy band further into the visible region.

[7] = tested on: visible light-induced free radicals in pig skin; assay: Visible light-induced free radicals in ALA-treated pig skin by Electron Spin Resonance; settings: 1% reference
Description: A conjugated fused tricycle compound according to Formula II(a)(1) reduced visible light-induced free radicals in skin by up to 89% and did so in a dose-dependent manner (FIG. 21). The study was conducted using pig skin, which is recognized for its similarity to human skin. Topical application of aminolevulinic acid (ALA) induced the skin to over-produce the endogenous photosensitizer Protoporphyrin IX (PPIX). Solutions of Formula II(a)(1) at different concentrations were then topically applied to the ALA treated skin after which it was exposed to bright green light. The resulting free radical content of the skin was then measured by Electron Spin Resonance (ESR). Studies conducted in solution have shown that Formula II(a)(1) suppresses singlet oxygen production by PPIX. […] The mechanisms of action of Formula II(a)(1) and Tocopherol are different: the former prevents free radicals from forming; the latter scavenges free radicals after they appear.

[8] = reference value; cited from earlier work
[9] = 0.01 M in 0.1 M TBAP in DMSO, 200 mV/s

Compound	% UVA ([5]; stabilizer level 1.0) [%]	% UVB ([5]; stabilizer level 1.0) [%]	% UVA ([5]; stabilizer level 2.0) [%]	% UVB ([5]; stabilizer level 2.0) [%]	% UVA ([5]; stabilizer level 4.0) [%]	% UVB ([5]; stabilizer level 4.0) [%]	further results
COC(=O)C(C#N)=c1c2ccccc2c(=C(C#N)C(=O)OC)c2ccccc12 [Formula II(b)(1)]							first (or only) redox couple, oxidation peak [1, 9]: +54 mV; first (or only) redox couple, reduction peak [1, 9]: −545 mV; first (or only) redox couple, redox potential ([1]; estimated from the peaks): −245 mV
COC(=O)C(C#N)=C1c2ccccc2Oc2ccccc21 [Formula II(d)(1)]							bimolecular quenching rate constant for singlet excited state quenching (in words) [2]: high quenching rate constant; Singlet Quenching Rate Constant [2]: 3.7 10^9 M^−1s^−1; Triplet Quenching Rate Constant [3]: 0.14 10^9 M^−1s^−1
COC(=O)C(C#N)=C1c2ccccc2Sc2ccccc21 [Formula II(e)(1)]							Stern-Volmer Constant of ^1O2 Suppression [4]: 1.2 M⁻¹; singlet oxygen suppression (in words) [4]: only negligible singlet oxygen suppression; second redox couple, oxidation peak (large) [1]: +434 mV; first (or only) redox couple, oxidation peak [1, 9]: −782 mV; first (or only) redox couple, reduction peak [1, 9]: −969 mV; second redox couple, reduction peak [1, 9]: −1409 mV; first (or only) redox couple, redox potential ([1]; estimated from the peaks): −875 mV; second redox couple, redox potential ([1]; estimated from the peaks): −1347 mV; second redox couple, oxidation peak ([1]; the small peak where two are given): −1286 mV; bimolecular quenching rate constant for singlet excited state quenching (in words) [2]: high quenching rate constant; Singlet Quenching Rate Constant [2]: 0.65 10^9 M^−1s^−1; Triplet Quenching Rate Constant [3]: 0.0012 10^9 M^−1s^−1
CCCCC(CC)COC(=O)C(C#N)=C1c2ccccc2Oc2ccccc21 (centres unmarked) [Formula Y-1-9, Ethylhexyl cyano xanthenylidene acetate]	88.6	91.8	88.6	91.1	94.5	95.3	
CCCCC(CC)COC(=O)C(C#N)=C1c2ccccc2Sc2ccccc21 (centres unmarked) [Formula Y-1-15, Ethylhexyl cyano thioxanthenylidene acetate]	85.5	90.0	91.0	93.8	90.8	93.9	
CCCCC(CC)COC(=O)C(C#N)=C(c1ccccc1)c1ccc(OC)cc1 (centres unmarked) [SolaStay S1, ethylhexyl methoxycrylene, reference compound]	81.3	87.8	84.2	90.1	87.3	91.5	λmax [6]: 336 nm; extinction coefficient (molar absorptivity) ([6]; at λmax): 13,200 M −1 cm −1
Cc1c(C)c2c(c(C)c1O)CCC(C)(CCCC(C)CCCC(C)CCCC(C)C)O2 (centres unmarked) [Tocopherol, reference compound]							Free Radicals (a.u.) ([7]; ALA-treated pig skin): 1955 ± 366 a.u.; Free Radicals (%) ([7]; relative to 0 mM control): 78%
O=C(c1ccccc1)c1ccccc1 [benzophenone]							quantum yield of singlet oxygen generation (reference) [8]: 0.35
Ethylhexyl dimethyl 2,2′-anthracene-9,10-diylidenebis(cyanoacetate) [Formula Y-1-22]	82.1	87.8	87.8	92.1	91.0	94.7	
